# Experimental data reported in patent US9416115B2, “Fused heterocyclic compounds as ion channel modulators” (Gilead Sciences, Inc., priority 2013, dated 2016).
# Read-outs that look alike come from different tables or passages of the source.
# Legend:
# [1] = biological target: wild-type human cardiac sodium channel, hNav1.5 (Homo sapiens, UniProt Q14524); assay: Peak INa screening assay (tonic block and use-dependent block); assay type: cell-based
# Method in brief: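 HEK293 cells stably expressing hNav1.5 (no beta subunits), automated whole-cell patch clamp at 23-25° C, 40 mM Na+ bath (choline substitution), pH 7.35. Compound at 1 or 3 μM, added twice then 200 s equilibration; tonic block by steps to −20 mV from −100 mV at 0.1 Hz, use-dependent block at pulse 50 of a 3 Hz train, rundown-corrected versus compound-free.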
# hNav1.1 (SCN1A) = hNav1.1 (SCN1A) (Homo sapiens, UniProt P35498); assay: Use-dependent inhibition of the CNS Nav1.1 sodium channel; assay type: cell-based; settings: use-dependent block, 25 Hz, pulse 20, read-out: Nav1.1 UDB 25 Hz 10 uM
# Method in brief: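 HEK-293 cells stably expressing WT hNav1.1, automated whole-cell patch clamp at 23-25 °C with CsF-based internal and NaCl external solutions, pH 7.35. Compound applied twice, 200 s equilibration; block measured at pulse 20 of a 25 Hz train (0 mV, 20 ms) from −120 mV, as mean % inhibition versus compound-free.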
# [2] = tonic block of Peak INa, 0.1 Hz, holding -100 mV, read-out: Peak TB 3 uM
# [3] = use-dependent block of Peak INa, 3 Hz, pulse 50, read-out: Peak UDB 3 Hz 3 uM
# Chain of wild-type human cardiac sodium channel, hNav1.5 (Q14524 whole entry): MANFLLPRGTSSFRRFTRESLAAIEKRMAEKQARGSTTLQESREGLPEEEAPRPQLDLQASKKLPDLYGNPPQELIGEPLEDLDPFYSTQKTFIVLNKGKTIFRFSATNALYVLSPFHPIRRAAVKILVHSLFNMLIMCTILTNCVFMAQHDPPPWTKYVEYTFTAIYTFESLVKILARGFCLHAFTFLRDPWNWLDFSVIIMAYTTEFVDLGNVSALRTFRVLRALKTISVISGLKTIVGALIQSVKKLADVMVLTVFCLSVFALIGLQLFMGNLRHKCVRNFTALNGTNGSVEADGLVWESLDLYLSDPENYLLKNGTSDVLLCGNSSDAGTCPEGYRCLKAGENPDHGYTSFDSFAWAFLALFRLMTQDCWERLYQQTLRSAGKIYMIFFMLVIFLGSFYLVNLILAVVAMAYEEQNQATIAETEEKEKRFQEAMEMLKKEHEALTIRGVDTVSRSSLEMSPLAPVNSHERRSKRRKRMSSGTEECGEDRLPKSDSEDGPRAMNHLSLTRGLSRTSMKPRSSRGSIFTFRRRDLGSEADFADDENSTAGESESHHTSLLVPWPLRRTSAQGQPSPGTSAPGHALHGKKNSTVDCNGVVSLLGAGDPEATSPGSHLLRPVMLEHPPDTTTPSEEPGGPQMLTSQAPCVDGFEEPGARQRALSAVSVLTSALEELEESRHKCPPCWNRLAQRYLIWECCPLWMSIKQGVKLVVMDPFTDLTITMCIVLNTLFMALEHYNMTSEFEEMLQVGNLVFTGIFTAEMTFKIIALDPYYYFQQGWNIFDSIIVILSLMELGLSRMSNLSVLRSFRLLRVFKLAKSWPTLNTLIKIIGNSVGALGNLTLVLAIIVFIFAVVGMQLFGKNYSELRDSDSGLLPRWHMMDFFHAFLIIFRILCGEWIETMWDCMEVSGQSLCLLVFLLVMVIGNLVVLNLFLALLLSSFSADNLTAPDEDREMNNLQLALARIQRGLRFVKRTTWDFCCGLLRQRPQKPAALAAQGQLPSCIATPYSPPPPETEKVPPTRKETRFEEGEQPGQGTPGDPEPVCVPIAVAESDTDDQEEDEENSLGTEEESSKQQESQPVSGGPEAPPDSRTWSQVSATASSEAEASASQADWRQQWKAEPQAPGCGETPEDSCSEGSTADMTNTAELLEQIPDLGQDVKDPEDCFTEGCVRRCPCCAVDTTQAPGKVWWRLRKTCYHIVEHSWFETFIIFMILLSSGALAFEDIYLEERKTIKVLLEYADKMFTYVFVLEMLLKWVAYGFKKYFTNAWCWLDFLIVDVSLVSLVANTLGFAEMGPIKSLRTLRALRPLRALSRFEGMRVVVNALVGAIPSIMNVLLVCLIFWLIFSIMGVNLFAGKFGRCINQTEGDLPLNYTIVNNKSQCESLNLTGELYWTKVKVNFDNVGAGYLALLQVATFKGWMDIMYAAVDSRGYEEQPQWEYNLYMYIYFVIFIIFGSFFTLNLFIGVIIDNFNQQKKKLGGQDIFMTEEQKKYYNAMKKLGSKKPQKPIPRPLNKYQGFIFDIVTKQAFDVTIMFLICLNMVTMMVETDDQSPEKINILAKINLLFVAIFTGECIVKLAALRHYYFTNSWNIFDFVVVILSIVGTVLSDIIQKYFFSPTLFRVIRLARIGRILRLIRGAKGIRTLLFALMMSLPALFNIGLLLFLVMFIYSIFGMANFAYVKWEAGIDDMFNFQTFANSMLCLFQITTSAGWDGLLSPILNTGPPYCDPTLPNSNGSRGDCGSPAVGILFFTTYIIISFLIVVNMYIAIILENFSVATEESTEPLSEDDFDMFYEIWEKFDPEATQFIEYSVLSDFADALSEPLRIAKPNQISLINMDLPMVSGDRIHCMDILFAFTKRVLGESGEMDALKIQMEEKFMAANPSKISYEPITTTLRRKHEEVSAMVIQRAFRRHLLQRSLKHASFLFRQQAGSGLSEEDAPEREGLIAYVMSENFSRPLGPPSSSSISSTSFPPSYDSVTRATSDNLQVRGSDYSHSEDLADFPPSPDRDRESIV
Compound,"inhibition at 3 µM [1, 2]","inhibition at 3 µM [1, 3]",inhibition at 10 µM (hNav1.1 (SCN1A))
"CC(C)(C)OC(=O)COc1noc2ccc(-c3ccc(OC(F)(F)F)cc3)cc12 [Example 157, tert-butyl 2-((5-(4-(trifluoromethoxy)phenyl)benzo[d]isoxazol-3-yl)oxy)acetate]",15.6%,< 5%,< 5%
"COc1cc(-c2ccc(OC(F)(F)F)cc2)cc2c(OCc3ncccn3)noc12 [Example 22, 7-methoxy-3-(pyrimidin-2-ylmethoxy)-5-(4-(trifluoromethoxy)phenyl)benzo[d]isoxazole]",10.2%,< 5%,28.1%
"OCc1cn(-c2noc3ccc(-c4ccc(OC(F)(F)F)cc4)cc23)cn1 [Example 146, (1-(5-(4-(trifluoromethoxy)phenyl)benzo[d]isoxazol-3-yl)-1H-imidazol-4-yl)methanol]",28.8%,25.5%,87.3%
"FC(F)(F)Oc1ccc(-c2ccc3onc(NCc4ncccn4)c3c2)cc1 [Example 126, N-(pyrimidin-2-ylmethyl)-5-(4-(trifluoromethoxy)phenyl)benzo[d]isoxazol-3-amine]",17.3%,< 5%,< 5%
"CC(=O)N1CC(COc2noc3ccc(-c4ccc(OC(F)(F)F)cc4)cc23)C1 [Example 110, 1-(3-(((5-(4-(trifluoromethoxy)phenyl)benzo[d]isoxazol-3-yl)oxy)methyl)azetidin-1-yl)ethan-1-one]",14.5%,11.5%,77.7%
"CCn1ccnc1COc1noc2ccc(-c3ccc(OC(F)(F)F)cc3)cc12 [Example 47, 3-((1-ethyl-1H-imidazol-2-yl)methoxy)-5-(4-(trifluoromethoxy)phenyl)benzo[d]isoxazole]",21.7%,8.5%,55.5%
"FC(F)(F)c1ccc(-c2ccc3onc(OCc4ncccn4)c3c2)cc1 [Example 9, 3-(pyrimidin-2-ylmethoxy)-5-(4-(trifluoromethyl)phenyl)benzo[d]isoxazole]",41.3%,10.3%,< 5%
"FC(F)(F)Oc1ccc(-c2ccc3onc(OCc4nnc(C5CC5)o4)c3c2)cc1 [Example 96, 3-((5-cyclopropyl-1,3,4-oxadiazol-2-yl)methoxy)-5-(4-(trifluoromethoxy)phenyl)benzo[d]isoxazole]",29.4%,< 5%,29.4%
"FC(F)(F)Oc1ccc(-c2ccc3onc(N4CCOCC4)c3c2)cc1 [Example 130, 3-morpholino-5-(4-(trifluoromethoxy)phenyl)benzo[d]isoxazole]",9.2%,< 5%,< 5%
"FC(F)(F)Oc1ccc(-c2ccc3onc(NCc4ncco4)c3c2)cc1 [Example 156, N-(oxazol-2-ylmethyl)-5-(4-(trifluoromethoxy)phenyl)benzo[d]isoxazol-3-amine]",10.4%,< 5%,26.5%
"Cc1cc(-c2ccc(OC(F)(F)F)cc2)cc2c(OCc3nnc(C4CC4)o3)noc12 [Example 105, 3-((5-cyclopropyl-1,3,4-oxadiazol-2-yl)methoxy)-7-methyl-5-(4-(trifluoromethoxy)phenyl)benzo[d]isoxazole]",9.4%,27.8%,75.7%
"FC(F)(F)Oc1ccc(-c2ccc3onc(-n4cnc(Cl)c4)c3c2)cc1 [Example 140, 3-(4-chloro-1H-imidazol-1-yl)-5-(4-(trifluoromethoxy)phenyl)benzo[d]isoxazole]",8.5%,< 5%,< 5%
"Cc1nnc(C(C)Oc2noc3ccc(-c4ccc(OC(F)(F)F)cc4)cc23)o1 (centres unmarked) [Example 153, 3-(1-(5-methyl-1,3,4-oxadiazol-2-yl)ethoxy)-5-(4-(trifluoromethoxy)phenyl)benzo[d]isoxazole]",57.6%,,73.1%
"Cc1nnc(COc2noc3ccc(-c4ccc(OC(F)(F)F)cc4)cc23)s1 [Example 101, 3-((5-methyl-1,3,4-thiadiazol-2-yl)methoxy)-5-(4-(trifluoromethoxy)phenyl)benzo[d]isoxazole]",13.5%,< 5%,< 5%
"O=C(COc1noc2ccc(-c3ccc(OC(F)(F)F)cc3)cc12)N1CCCC1 [Example 121, 1-(pyrrolidin-1-yl)-2-((5-(4-(trifluoromethoxy)phenyl)benzo[d]isoxazol-3-yl)oxy)ethan-1-one]",79%,23.4%,43.6%
"CN1CCN(c2noc3ccc(-c4ccc(OC(F)(F)F)cc4)cc23)CC1 [Example 127, 3-(4-methylpiperazin-1-yl)-5-(4-(trifluoromethoxy)phenyl)benzo[d]isoxazole]",23.7%,25.1%,82.8%
"Fc1cc(C(F)(F)F)ccc1-c1ccc2onc(OCc3ncccn3)c2c1 [Example 6, 5-(2-fluoro-4-(trifluoromethyl)phenyl)-3-(pyrimidin-2-ylmethoxy)benzo[d]isoxazole]",29.8%,12.6%,< 5%
"FC(F)(F)Oc1ccc(-c2ccc3onc(OCc4nnc(C5CC5)s4)c3c2)cc1 [Example 154, 3-((5-cyclopropyl-1,3,4-thiadiazol-2-yl)methoxy)-5-(4-(trifluoromethoxy)phenyl)benzo[d]isoxazole]",7.68%,< 5%,19.8%
"CN(C)c1noc2ccc(-c3ccc(OC(F)(F)F)cc3)cc12 [Example 133, N,N-dimethyl-5-(4-(trifluoromethoxy)phenyl)benzo[d]isoxazol-3-amine]",38.8%,5.2%,22.1%
"CC(C)NC(=O)COc1noc2ccc(-c3ccc(OC(F)(F)F)cc3)cc12 [Example 122, N-isopropyl-2-((5-(4-(trifluoromethoxy)phenyl)benzo[d]isoxazol-3-yl)oxy)acetamide]",10.7%,< 5%,< 5%
"CC(C)c1nnc(COc2noc3ccc(-c4ccc(OC(F)(F)F)cc4)cc23)o1 [Example 100, 3-((5-isopropyl-1,3,4-oxadiazol-2-yl)methoxy)-5-(4-(trifluoromethoxy)phenyl)benzo[d]isoxazole]",23.5%,< 5%,9.9%
"Cc1cc2onc(OCc3ncccn3)c2cc1-c1ccc(C(F)(F)F)cc1F [Example 28, 5-(2-fluoro-4-(trifluoromethyl)phenyl)-6-methyl-3-(pyrimidin-2-ylmethoxy)benzo[d]isoxazole]",21.6%,< 5%,< 5%
"CN1CCC[C@H]1COc1noc2ccc(-c3ccc(OC(F)(F)F)cc3)cc12 [Example 71, (S)-3-((1-methylpyrrolidin-2-yl)methoxy)-5-(4-(trifluoromethoxy)phenyl)benzo[d]isoxazole]",61.1%,44.4%,93.8%
"Cc1nnc(COc2noc3c(F)cc(-c4ccc(OC(F)(F)F)cc4)cc23)o1 [Example 155, 7-fluoro-3-((5-methyl-1,3,4-oxadiazol-2-yl)methoxy)-5-(4-(trifluoromethoxy)phenyl)benzo[d]isoxazole]",24.8%,8.4%,63.5%
"Cc1cnc(COc2noc3ccc(-c4ccc(OC(F)(F)F)cc4)cc23)cn1 [Example 73, 3-((5-methylpyrazin-2-yl)methoxy)-5-(4-(trifluoromethoxy)phenyl)benzo[d]isoxazole]",41.9%,< 5%,10.1%
"Cc1cc(-c2ccc(OC(F)(F)F)cc2)cc2c(OCc3ncccn3)noc12 [Example 16, 7-methyl-3-(pyrimidin-2-ylmethoxy)-5-(4-(trifluoromethoxy)phenyl)benzo[d]isoxazole]",35.8%,< 5%,27.3%
"FC(F)(F)Oc1ccc(-c2ccc3onc(-n4cncn4)c3c2)cc1 [Example 136, 3-(1H-1,2,4-triazol-1-yl)-5-(4-(trifluoromethoxy)phenyl)benzo[d]isoxazole]",10.5%,< 5%,< 5%
"CC(C)c1nccn1-c1noc2ccc(-c3ccc(OC(F)(F)F)cc3)cc12 [Example 144, 3-(2-isopropyl-1H-imidazol-1-yl)-5-(4-(trifluoromethoxy)phenyl)benzo[d]isoxazole]",46.9%,< 5%,73.2%
"COc1cc(OC(F)(F)F)ccc1-c1ccc2onc(OCc3ncccn3)c2c1 [Example 4, 5-(2-methoxy-4-(trifluoromethoxy)phenyl)-3-(pyrimidin-2-ylmethoxy)benzo[d]isoxazole]",38%,17.9%,14.2%
"COc1ccnc(CNc2noc3ccc(-c4ccc(OC(F)(F)F)cc4)cc23)n1 [Example 149, N-((4-methoxypyrimidin-2-yl)methyl)-5-(4-(trifluoromethoxy)phenyl)benzo[d]isoxazol-3-amine]",86.4%,< 5%,50%
